From patent publication US5612480A, “2-chloro and 2-bromo derivatives of 1,5-iminosugars” (priority 1995, dated 1997)
Converted amounts (≈) assume the structure as drawn. Read-outs that look alike come from different tables or passages of the source.

What was measured:
HIV-1 = experiment: Anti-HIV activity: inhibition of HIV-1 induced cytopathic effect in CEM cells, MTT (Method B); assay type: cell-based, strain HTVL-IIIB; details: Human immunodeficiency virus 1, CCRF-CEM; for inhibition at 10 µg/mL: 10 μg/mL; for inhibition at 100 µg/mL: 100 μg/mL; for inhibition at 500 µg/mL: 500 μg/mL
Experimental: (§1) Inhibitory activity against HIV-1 was shown by tests involving plating of susceptible human host cells which are syncytium-sensitive with and without virus in microculture plates, adding various concentrations of the test compound, incubating the plates for 7 to 9 days (during which time infected, non-drug treated control cells are largely or totally destroyed by the virus), and then determining the remaining number of viable cells with a colorometric endpoint.
(§2) Various illustrative compounds synthesized above were tested for inhibition of visna virus in vitro in a plaque reduction assay (Method A) or for inhibition of HIV-1 in a test which measured reduction of cyto-pathogenic effect in virus-infected syncytium-sensitive Leu-3a-positive CEM cells grown in tissue culture (Method B) as follows:
Tissue culture plates were incubated at 37° C. in a humidified, 5% CO2 atmosphere and observed microscopically for toxicity and/or cytopathogenic effect (CPE). At 1 hour prior to infection each test article was prepared from the frozen stock, and a 20 μl volume of each dilution (prepared as a 10 X concentration) was added to the appropriate wells of both infected and uninfected cells.
Assays were done in 96-well tissue culture plates. CEM cells were treated with polybrene at a concentration of 2 μg/ml, and an 80 μl volume of cells (1×10^4 cells) was dispensed into each well. A 100 μl volume of each test article dilution (prepared as a 2 X concentration) was added to 5 wells of cells, and the cells were incubated at 37° C. for 1 hour. A frozen culture of HIV-1, strain HTVL-IIIB, was diluted in culture medium to a concentration of 5×10^4 TCID50 per ml, and a 20 μl volume (containing 10^3 TCID50 of virus) was added to 3 of the wells for each test article concentration. […] A 20 μl volume of normal culture medium was added to the remaining wells to allow evaluation of cytotoxicity. Each plate contained 6 wells of untreated, uninfected, cell control samples and 6 wells of untreated, infected, virus control samples.
On the 9th day post-infection, the cells in each well were resuspended and a 100 μl sample of each cell suspension was removed for use in an MTT assay. A 20 μl volume of a 5 mg/ml solution of 3-(4,5-dimethylthiazol-2-yl)-2,5-diphenyltetrazolium bromide (MTT) was added to each 100 μl cell suspension, and the cells were incubated at 37° C. in 5% CO2 for 4 hours. […] A 100 μl volume of a solution of 10% sodium dodecyl sulfate in 0.01 N hydrochloric acid was added to each sample, and the samples were incubated overnight. The absorbance at 590 nm was determined for each sample using a Molecular Devices Vmax microplate reader. This assay detects drug-induced suppression of viral CPE, as well as drug cytotoxicity, by measuring the generation of MTT-formazan by surviving cells.

β-glucosidase [1] = details: 0.1 mM; according to U.S. Pat. No. 5,025,021; cited from earlier work
α-glucosidase [2] = details: 0.1 mM; according to U.S. Pat. No. 5,025,021; cited from earlier work
visna virus = experiment: Inhibition of visna virus growth, plaque reduction assay in sheep choroid plexus (SCP) cells (Method A); assay type: cell-based
Source text: Inhibitory activity against visna virus was shown by a conventional plaque reduction assay. Visna virus, a lentivirus genetically very similar to the AIDS virus, is pathogenic for sheep and goats. See Sonigo et al., Cell 42, 369-382 (1985); Haase, Nature 322, 130-136 (1986). Inhibition of visna virus replication in vitro as a useful model for HIV and its inhibition by test compounds has been described by Frank et al., Antimicrobial Agents and Chemotherapy 31 (9), 1369-1374 (1987).
as §2
Sheep choroid plexus (SCP) cells were obtained from American Type Culture Collection (ATCC) catalogue number CRL 1700 and were routinely passaged in vitro in Dulbecco's Modified Eagles (DME) medium supplemented with 20% fetal bovine serum (FBS). SCP cells were passaged once per week at a 1:2 or 1:3 split ratio. Visna was titrated by plaque assay in six-well plates. Virus pools were stored at -70° C.
SCP cells were cultured in 6-well plates to confluence. Wells were washed two times with serum free Minimal Essential Medium (MEM) to remove FBS. 0.2 ml of virus was added per well in MEM supplemented with 4 mM glutamine and gentamycin. After 1 hour adsorption, the virus was aspirated from each well. The appropriate concentration of each compound in 5 ml of Medium 199 (M-199) supplemented with 2% lamb serum, 4 mM glutamine, 0.5% agarose and gentamycin was added to each well. Cultures were incubated at 37° C. in a humidified 5% CO2 incubator for 3-4 weeks. To terminate the test, cultures were fixed in 10% formalin, the agar removed, the monolayers stained with 1% crystal violet and plaques counted. Each compound concentration was run in triplicate. […] 0 is no toxicity observed while 4 is total lysing of the cell monolayer. […]
Control wells without virus were completed to determine the toxicity of compounds.

β-glucosidase [3] = experiment: β-glucosidase inhibition, conventional in vitro assay (p-nitrophenol release); assay type: biochemical; details: 0.1 mM
Experimental: (§3) Inhibitory activity against α- and β-glucosidase enzymes was determined by conventional in vitro assays for these enzymes as described in U.S. Pat. No. 4,973,602. These assays involve spectrophotometric measurement of the release of p-nitrophenol from the substrate p-nitrophenyl-glycoside in the presence and absence of the test compound and comparison against a control standard that contains a known inhibitor of the enzyme.

[4] = Cytotoxicity in CEM cells (TD50) in the standard CEM cell assay for HIV inhibition; assay type: cell-based; details: human
Experimental: as §1
This is illustrated by a side-by-side comparison between the 2-chloro-N-butyl-DNJ of the present invention and the corresponding 2-fluoro-N-butyl-DNJ disclosed in U.S Pat. No. 5,025,021. […] Moreover, the foregoing illustrative 2-chloro derivative also is a better enzyme inhibitor than the corresponding 2-fluoro derivative. The 2-chloro derivative inhibits α-glucosidase 46% and β-glucosidase 32% at 0.1 mM, whereas the corresponding 2-fluoro derivative inhibits these enzymes at only 8% and 4% at the same concentration according to U.S. Pat. No. 5,025,021.
Assays were done in 96-well tissue culture plates. […]
On the 9th day post-infection, the cells in each well were resuspended and a 100 μl sample of each cell suspension was removed for use in an MTT assay. […] The absorbance at 590 nm was determined for each sample using a Molecular Devices Vmax microplate reader. […]

α-glucosidase [5] = experiment: α-glucosidase inhibition, conventional in vitro assay (p-nitrophenol release); assay type: biochemical; details: 0.1 mM
Experimental: as §3

β-Glucosidase (almond) [6] = experiment: Beta-glucosidase (almond) inhibition assay, pH 7.4; assay type: biochemical
Experimental: (§4) Yeast alpha-glucosidase and almond beta-glucosidase activities were measured by a modification of the method of Evans, et al., Phytochemistry 22, 768-770 (1983). The modifications included (1) assay of activities at pH 7.4 in HEPES (N-2-hydroxyethylpiperazine-N'-2-ethanesulfonic acid) buffer, 2) measurement in 96 well microtiter plates and (3) inclusion of 10% DMSO in control and test samples.
(§5) The release of p-nitrophenol from the substrate p-nitrophenylglycoside was measured spectrophotometrically in the presence and absence of test compound. Each assay included a known inhibitor of the enzyme as a standard. IC50 values were determined for compounds which inhibited the enzymes more than 50% at a 1 millimolar concentration.
(§6) To 100 μl 50 mM HEPES buffer, pH 7.4, in a microtiter plate, add 20 μl test compound in DMSO (DMSO alone in control), 40 μl (0.136 units) beta-glucosidase (Sigma) in HEPES buffer and pre-incubate at room temperature for 15 minutes. Add 40 μl 1.25 mM p-nitrophenyl-beta-D-glucopyranoside in HEPES buffer, as substrate and monitor absorbance change at 405 nm in a Biotek EIA Autoreader. Absorption change was measured at 15 to 25 minutes (reaction is linear for at least 30 minutes). Each sample was tested in triplicate. IC50 values were determined from the linear portion of the log concentration vs % inhibition curve obtained from a minimum of 3 points. Castanospermine was used as standard inhibitor.

β-Glucosidase (almond) [7] = experiment: Beta-glucosidase (almond) inhibitor assay, pH 4.8; assay type: biochemical
Experimental: as §4, §5
To 100 μl 50 mM sodium citrate buffer, pH 4.8, in a microtiter plate, add 15 μl test compound in DMSO (DMSO alone in control), 20 μl (0.017 units) beta-glucosidase (Sigma) in citrate buffer and pre-incubate at room temperature for 15 minutes. Add 25 μl 2.50 mM p-nitrophenyl-beta-D-glucopyranoside in citrate buffer, as substrate. Incubate at room temperature 20 minutes (reaction is linear for at least 30 minutes). Add 50 μl 0.4 M NaOH. Read absorption change at 405 nm in a Biotek EIA Autoreader. Each sample was tested in triplicate. IC50 values were determined from the linear portion of the log concentration vs % inhibition curve obtained from a minimum of 3 points. Castanospermine was used as standard inhibitor.

α-Glucosidase (yeast) = target: T1, α-Glucosidase (yeast) (Saccharomyces cerevisiae, UniProt P53341); experiment: Alpha-glucosidase (yeast) inhibition assay, pH 7.4; assay type: biochemical
T1 construct: purchased Sigma
T1 sequence (P53341 whole entry): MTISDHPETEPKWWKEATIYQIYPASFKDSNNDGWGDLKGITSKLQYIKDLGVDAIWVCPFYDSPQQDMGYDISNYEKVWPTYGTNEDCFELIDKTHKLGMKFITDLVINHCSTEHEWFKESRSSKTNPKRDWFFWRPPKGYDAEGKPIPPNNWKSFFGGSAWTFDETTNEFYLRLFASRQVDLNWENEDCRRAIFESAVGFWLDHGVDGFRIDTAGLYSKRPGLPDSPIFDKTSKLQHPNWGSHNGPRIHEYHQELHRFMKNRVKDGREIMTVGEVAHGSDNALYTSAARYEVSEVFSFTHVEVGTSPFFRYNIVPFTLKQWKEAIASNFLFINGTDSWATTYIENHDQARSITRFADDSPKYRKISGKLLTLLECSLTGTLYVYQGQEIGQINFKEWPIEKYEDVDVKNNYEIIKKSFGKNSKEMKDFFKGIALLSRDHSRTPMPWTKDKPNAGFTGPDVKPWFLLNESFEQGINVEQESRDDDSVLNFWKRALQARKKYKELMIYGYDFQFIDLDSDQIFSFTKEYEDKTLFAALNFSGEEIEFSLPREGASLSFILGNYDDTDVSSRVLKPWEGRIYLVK
Experimental: as §4, §5
as §6, with “(0.013” for “(0.136”, “yeast alpha-glucosidase” for “beta-glucosidase”, “p-nitrophenyl-alpha-D-glucopyranoside (Sigma)” for “p-nitrophenyl-beta-D-glucopyranoside”, “substrate,” for “substrate”, “was” for “is”, “Deoxynojirimycin” for “Castanospermine”

[8] = standard CEM cell assay, side-by-side comparison
[9] = CEM cells, Table 2, read-out: Anti-HIV activity, inhibition of virus induced cytopathic effect, EC50
[10] = pH 7.4, read-out: Percent inhibition of α-glucosidase (yeast)
[11] = 100 μM, pH 7.4, read-out: Percent inhibition of α-glucosidase (yeast)
[12] = 1000 μM, pH 7.4, read-out: Percent inhibition of α-glucosidase (yeast)

Row | SMILES | inhibition at 10 µg/mL (HIV-1; [8]) [%] | inhibition at 100 µg/mL (HIV-1; [8]) [%] | EC50 (HIV-1; [9]) [µg/mL] | inhibition at 1000 µM (visna virus; Visna-maedi virus, 1.0 mM) [%] | Percent inhibition of β-glucosidase (almond) (β-Glucosidase (almond) [6]; 100 μM) [%] | Percent inhibition of β-glucosidase (almond) (β-Glucosidase (almond) [6]; 1000 μM) [%] | % inhibition of visna virus growth (visna virus; 0.001 mM) [%] | % inhibition of visna virus growth (visna virus; 0.01 mM) [%] | % inhibition of visna virus growth (visna virus; 0.1 mM) [%] | % inhibition of visna virus growth (visna virus; 1.0 mM) [%] | Percent inhibition of β-glucosidase (almond) (β-Glucosidase (almond) [7]; 100 μM) [%] | Percent inhibition of β-glucosidase (almond) (β-Glucosidase (almond) [7]; 1000 μM) [%] | inhibition at 1 µM (α-Glucosidase (yeast); [10]) [%] | inhibition at 10 µM (α-Glucosidase (yeast); [10]) [%] | inhibition at 100 µM (α-Glucosidase (yeast); [10]) [%] | inhibition at 1000 µM (α-Glucosidase (yeast); [10]) [%] | inhibition at 100 µM (α-Glucosidase (yeast); [11]) [%] | inhibition at 1000 µM (α-Glucosidase (yeast); [12]) [%] | further results
1 | CCCCN1C[C@H](F)[C@@H](O)[C@H](O)[C@H]1CO [2-fluoro-N-butyl-DNJ, reference compound] | 0 | 0 |  |  |  |  |  |  |  |  |  |  |  |  |  |  |  |  | inhibition at 500 µg/mL (HIV-1; standard CEM cell assay, side-by-side comparison, read-out: % inhibition of HIV): 3%; % inhibition of β-glucosidase (β-glucosidase [1]): 4%; % inhibition of α-glucosidase (α-glucosidase [2]): 8%
2 | CCCCN1C[C@H](Cl)[C@@H](O)[C@H](O)[C@H]1CO [Example 27, 1,5-(Butylimino)-2-chloro-1,2,5-trideoxy-D-glucitol] | 29.3 | 62.5 | 43 (≈ 181 µM) | 99 |  |  |  |  |  |  |  |  |  |  |  |  |  |  | EC50 (HIV-1; standard CEM cell assay, side-by-side comparison, read-out: EC50, HIV inhibition, calculated by linear regression): 43 µg/mL (≈ 181 µM); inhibition at 10 µM (visna virus; Visna-maedi virus, 0.01 mM): 39%; inhibition at 100 µM (visna virus; Visna-maedi virus, 0.1 mM): 38%; % inhibition of β-glucosidase (β-glucosidase [3]): 32%; CC50 [4]: 187 µg/mL (≈ 787 µM); % inhibition of α-glucosidase (α-glucosidase [5]): 46%
3 | CCCCCCN1C[C@H](Cl)[C@@H](O)[C@H](O)[C@H]1CO [Example 28, 2-Chloro-1,2,5-trideoxy-1,5(hexylimino)-D-glucitol] |  |  | 11 (≈ 41.4 µM) |  | 62.9 | 90 | 6 | 61 | 100 | 100 | 43.7 | 84 | 4 | 37.6 | 82.9 | 95.5 |  |  | 
4 | OC[C@@H]1[C@@H](O)[C@H](O)[C@@H](Cl)CN1CCCc1ccccc1 [Example 30, 2-Chloro-1,2,5-trideoxy-1,5-(3-phenyl)propylimino-D-glucitol] |  |  |  |  | 66.2 | 92.5 | 20 | 57 | 97 | 100 | 47.6 | 84.7 | 4.6 | 46.4 | 87.3 | 97.5 |  |  | 
5 | CCCCNC(=O)O[C@H]1CN(CCCC)[C@H](CO)[C@@H](O)[C@@H]1O [Example 36] |  |  |  | 21 | -2.4 | 0.3 |  |  |  |  | 4.3 | 3.1 |  |  |  |  | 11 | -6.8 | 
6 | CCCCN1[C@H](CO)[C@@H](O)[C@H](O)[C@H]1CN=[N+]=[N-] [Example 47, 1-Azido-2,5-(butylimino)-1,2,5-trideoxy-D-mannitol] |  |  |  |  | -4.1 | 6.7 |  |  |  |  | 11.2 | 32.6 |  |  |  |  | 22.7 | 24.8 | inhibition at 500 µg/mL (HIV-1; CEM cells, Table 2, read-out: Anti-HIV activity, % inhibition of virus induced cytopathic effect): 36%
